Source: US20030013635A1, “Method for the treatment of depression by inhibition of NAALADase” (priority 2001, published 2003)

Test system: socially defeated mice
Assay: social defeat (SD) model in the mouse, social interaction with a non-aggressive intruder
Format: in vivo
Description: N-acetylaspartylglutamate (NAAG) is the most abundant peptide neurotransmitter in the brain. Glu release is increased during stress. Inhibiting glutamatergic tone by inhibiting NAALADase proves an antidepressant in the social defeat (SD) model. The SD model is a form of conditioned contextual fear, in which once-defeated mice retain a long-lasting over-generalized fear and avoidance of all mice (even non-aggressive ones) and lose normal species-appropriate territorial defense.
The SD model is a form of conditioned contextual fear, in which once-defeated mice retain a long-lasting over-generalized fear and avoidance of all mice (even non-aggressive ones), losing normal species-appropriate territoriality [Lumley et al., 1999] and displaying immobility in a swim test—a behavior associated with models of depression [Hebert et al., 1998].
Thus, GPI 5232 increased normal territoriality and other species-appropriate social behavior. In sum, this drug diminished behaviors associated with conditioned contextual fear. It is also believed to reduce depression.

Question: For `O=C(O)CCC(CP(=O)(O)Cc1c(F)c(F)c(F)c(F)c1F)C(=O)O` (stereo not drawn) [GPI 5232], which “behaviors associated with conditioned contextual fear” value (SD model) is on record?
Answer: markedly diminished

Question: What about the “normal territoriality and other species-appropriate social behavior” value (SD model) of the same compound?
Answer: increased

Question: What about the “display of territorial behavior in the form of runback re-approaches” value (acute injection, social interaction with a non-aggressive intruder (FIG. 1)) of the same compound?
Answer: significantly increased
